Earlier results as cited in patent publication US8158147B2, “Modified release formulations of at least one form of tramadol” (priority 2002, dated 2012).
Like-named read-outs stand apart in the source and are kept apart here.

Experiments:
osteoarthritis [1] = conditions: Study No. 058; 6 weeks; rofecoxib 12.5 mg, Nabumetone 1500 mg
osteoarthritis [2] = conditions: 12 weeks, celecoxib 100 mg BID, Naproxen 500 mg BID

Structure (SMILES)	WOMAC pain walking on a flat surface, mean difference vs placebo (osteoarthritis [1])	LS mean difference in pain VAS change from baseline vs placebo (osteoarthritis [2]; Study No. 020)	LS mean difference in pain VAS change from baseline vs placebo (osteoarthritis [2]; Study No. 054)
COc1ccc2cc(CCC(C)=O)ccc2c1 [Nabumetone]	10 mm		
COc1ccc2cc([C@H](C)C(=O)O)ccc2c1 [Naproxen]		7.6 mm	11.2 mm
CS(=O)(=O)c1ccc(C2=C(c3ccccc3)C(=O)OC2)cc1 [rofecoxib, Rofecoxib]	9.0 mm		
